Data taken from US20110034504A1, “AGENT FOR PREVENTING AND/OR TREATING VASCULAR DISEASES” (Astellas Pharma Inc., priority 2008, published 2011).
Where two headings read alike, the source gives them in different places.

Experiments:
[1] = system: iron chloride-induced thrombus (abdominal aorta); assay: ferric chloride-induced thrombosis model in guinea pigs; format: in vivo, guinea pig; conditions: for total protein content of thrombi, concomitant administration compared with single administration groups: oral; for total protein content of thrombi, comparison with control (vehicle administration group): single drug, Student's t-test
Protocol: Verification of anti-thrombotic action was carried out using a ferric chloride-induced thrombosis model in guinea pigs, by partially modifying the experiment described in “Thrombosis Research” (1990, vol. 60, p. 269-280). Using 0.5% methyl cellulose solution as the vehicle, clopidogrel solution, aspirin suspension and Compound A suspension were prepared. […] Thrombus was induced by the following procedure. Each guinea pig was laparotomized while under pentobarbital anesthesia, and abdominal aorta was carefully detached from the surrounding tissues. […] The filter paper was removed 10 minutes thereafter, followed by 45 minutes of standing under subdued light. Both ends of the injured part of the detached blood vessel were closed with clips, and inside thereof was cut out using scissors to collect the blood vessel. By cutting open the thus collected blood vessel vertically, the thrombi formed in the blood vessel were taken out using a pair of tweezers and dissolved in 0.5 mol/1 of NaOH. Protein concentration was determined using DC protein assay kit (mfd. by BIO-RAD Laboratories) and in accordance with the protocols. Using total protein content of the formed thrombi as the index of anti-thrombotic effect, Statistical analysis between respective groups was performed by using Student's t-test.

gastric mucosa = assay: influence of drugs upon gastric mucosa in normal guinea pigs; format: in vivo, guinea pig; conditions: for gastric mucosal lesion (length): 3 hours after administration
Protocol: Examination of the influence of drugs exerting upon gastric mucosa was carried out using normal guinea pigs. Using 0.5% methyl cellulose solution as the vehicle, clopidogrel solution, aspirin suspension and Compound A suspension were prepared. […] Also, in the evaluation at the time of concomitant administration of clopidogrel with aspirin or Compound A, in addition to 3 mg/kg of clopidogrel, 300 mg/kg of aspirin was simultaneously administered in the aspirin concomitant use group, and 100 mg/kg of Compound A in the Compound A concomitant use group. After 3 hours of the administration, each guinea pig was sacrificed by deep anesthesia with carbon dioxide, and the stomach was quickly removed. The gullet part of the extracted stomach was ligated, 15 ml of 4% neutral buffered formalin solution was injected from the pylorus part, and then light fixation was carried out by immersing in the same solution for about 1 hour after ligating the pylorus part. Thereafter, the stomach was cut open along the greater curvature of stomach, and the length (mm) of gastric mucosal lesion was measured using a stereoscopic microscope. Statistical analysis between respective groups was performed by using Wilcoxon rank sum test.

COX-1 = target: T1, COX-1 (Cavia porcellus, UniProt H0V9X9); assay: coagulation-induced Thromboxane B2 (TXB2) production inhibition using guinea pig whole blood after oral administration; format: in vivo; conditions: concomitant use with 1 mg/kg of clopidogrel, read-out: inhibitory rate of coagulation-induced TXB2 production relative to the vehicle group
T1 construct: from tissue; host or cells: whole blood from the abdominal aorta of male Hartley guinea pigs
T1 sequence (H0V9X9 25-553): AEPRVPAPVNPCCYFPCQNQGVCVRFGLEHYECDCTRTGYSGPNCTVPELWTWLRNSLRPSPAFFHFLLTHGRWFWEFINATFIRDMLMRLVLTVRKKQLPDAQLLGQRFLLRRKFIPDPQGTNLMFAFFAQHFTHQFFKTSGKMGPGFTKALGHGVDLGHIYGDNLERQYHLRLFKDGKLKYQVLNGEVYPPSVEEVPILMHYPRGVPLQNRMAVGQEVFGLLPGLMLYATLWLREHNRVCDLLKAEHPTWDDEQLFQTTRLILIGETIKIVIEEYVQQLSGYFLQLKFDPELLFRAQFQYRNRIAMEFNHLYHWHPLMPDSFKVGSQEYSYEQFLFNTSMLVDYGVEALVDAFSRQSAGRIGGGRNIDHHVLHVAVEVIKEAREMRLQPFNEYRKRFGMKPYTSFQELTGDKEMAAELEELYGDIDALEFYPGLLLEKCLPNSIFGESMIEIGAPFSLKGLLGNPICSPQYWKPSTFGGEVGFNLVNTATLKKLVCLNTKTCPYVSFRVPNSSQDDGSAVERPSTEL
Protocol: Examination on the selectivity of inhibitory effect on Cyclooxygenase (COX)-½ was carried out based on, as indexes, the coagulation-induced Thromboxane B2 (TXB2) production inhibition (COX-1 inhibition) and the LPS-induced Prostaglandin E2 (PGE2) production inhibition using guinea pig whole blood. As the vehicle, 0.5% methyl cellulose solution was used. By dissolving clopidogrel and suspending aspirin and Compound A therein, clopidogrel was orally administered 2 hours before the blood collection, and aspirin and Compound A 1 hour before thereof, to male Hartley guinea pigs which had been subjected to fasting (drug administered groups). On the other hand, as the vehicle administration group, clopidogrel was orally administered 2 hours before the blood collection, and the vehicle 1 hour before thereof. […] TXB2 concentration in the serum was measured using a TXB2 EIA Kit (mfd. by Cayman Chemicals). […] PGE2 concentration in the buffer was measured using a PGE2 EIA Kit (mfd. by Cayman Chemicals). Inhibitory rate of each of the TXB2 concentration and PGE2 concentration relative to the vehicle group was calculated using a calculation formula [100-(drug administration group concentration/solvent administration concentration)×100 (%)], and significant difference from the vehicle group was tested using Student's t-test.

COX-2 = target: T2, COX-2 (Cavia porcellus, UniProt P70682); assay: LPS-induced Prostaglandin E2 (PGE2) production inhibition using guinea pig whole blood after oral administration; format: in vivo; conditions: read-out: inhibitory rate of LPS-induced PGE2 production relative to the vehicle group
T2 construct: The sodium citrate-added whole blood was mixed with LPS to a final concentration of 100 μg/ml, incubated at 37° C. for 24 hours; from tissue; host or cells: citrated whole blood of male Hartley guinea pigs, stimulated with LPS
T2 sequence (P70682 18-604): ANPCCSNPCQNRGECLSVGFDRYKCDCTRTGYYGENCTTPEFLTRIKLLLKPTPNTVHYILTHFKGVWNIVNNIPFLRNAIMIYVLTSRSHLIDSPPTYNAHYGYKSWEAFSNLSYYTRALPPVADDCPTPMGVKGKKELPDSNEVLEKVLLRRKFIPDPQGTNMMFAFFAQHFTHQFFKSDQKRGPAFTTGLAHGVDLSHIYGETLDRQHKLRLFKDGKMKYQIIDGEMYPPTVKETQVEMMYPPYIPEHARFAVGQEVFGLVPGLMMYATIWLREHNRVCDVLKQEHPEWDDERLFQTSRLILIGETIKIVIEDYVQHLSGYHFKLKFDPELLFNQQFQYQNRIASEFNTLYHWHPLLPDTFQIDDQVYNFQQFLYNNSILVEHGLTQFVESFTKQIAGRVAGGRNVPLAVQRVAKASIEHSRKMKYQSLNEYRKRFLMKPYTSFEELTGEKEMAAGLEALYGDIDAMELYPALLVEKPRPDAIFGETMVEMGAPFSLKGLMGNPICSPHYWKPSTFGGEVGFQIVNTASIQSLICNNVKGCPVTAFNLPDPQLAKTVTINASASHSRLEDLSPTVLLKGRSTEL
Protocol: Examination on the selectivity of inhibitory effect on Cyclooxygenase (COX)-½ was carried out based on, as indexes, the coagulation-induced Thromboxane B2 (TXB2) production inhibition (COX-1 inhibition) and the LPS-induced Prostaglandin E2 (PGE2) production inhibition using guinea pig whole blood. As the vehicle, 0.5% methyl cellulose solution was used. […] On the other hand, as the vehicle administration group, clopidogrel was orally administered 2 hours before the blood collection, and the vehicle 1 hour before thereof. Each guinea pig was laparotomized while under ether anesthesia, 4 ml of blood was collected from the abdominal aorta, and 1 ml thereof was put into an anticoagulant-un-added tube and allowed to stand still and then 3 ml thereof was put into a tube charged with 300 μl of sodium citrate, followed by tipping mixing. […] PGE2 concentration in the buffer was measured using a PGE2 EIA Kit (mfd. by Cayman Chemicals). Inhibitory rate of each of the TXB2 concentration and PGE2 concentration relative to the vehicle group was calculated using a calculation formula [100-(drug administration group concentration/solvent administration concentration)×100 (%)], and significant difference from the vehicle group was tested using Student's t-test.

[2] = thromboembolism patients, CAPRIE trial; cited from earlier work
[3] = cited from earlier work
[4] = clopidogrel combined with aspirin, cited from earlier work
[5] = combination use of aspirin and clopidogrel, cited from earlier work

COc1ccc(-c2nc(OC)nn2-c2ccc(OC)cc2)cc1 [Compound A, 3-methoxy-1,5-bis(4-methoxyphenyl)-1H-1,2,4-triazole]
total protein content of thrombi, compared with concomitant administration group of clopidogrel and aspirin ([1]; 3 mg/kg Compound A + 1 mg/kg clopidogrel vs 300 mg/kg aspirin + 1 mg/kg clopidogrel): statistically significant difference from a concomitant administration group of clopidogrel and aspirin | total protein content of thrombi, concomitant administration compared with single administration groups ([1]; 3 mg/kg Compound A concomitantly with 1 mg/kg clopidogrel): statistically significant difference from the clopidogrel single administration group (CLO 1) and Compound A single administration group (Comp A 3) | total protein content of thrombi, comparison with control (vehicle administration group) ([1]; Compound A 3 mg/kg orally 1 hour before thrombus induction): statistically significant difference | gastric mucosal lesion (length) (gastric mucosa; 100 mg/kg oral, single drug): a clear action for gastric mucosa cannot be confirmed | gastric mucosal lesion (length) (gastric mucosa; Compound A 100 mg/kg concomitantly with clopidogrel 3 mg/kg, oral): a clear action for gastric mucosa cannot be confirmed | inhibition at 3 mg/kg (COX-1; 3 mg/kg Compound A orally): 82.1% | inhibition at 3 mg/kg (COX-2; 3 mg/kg Compound A orally, concomitant use with 1 mg/kg of clopidogrel): 10.1%

CC(=O)Oc1ccccc1C(=O)O [aspirin]
total protein content of thrombi, concomitant administration compared with single administration groups ([1]; 300 mg/kg aspirin concomitantly with 1 mg/kg clopidogrel): significant difference from the clopidogrel single administration group (CLO 1), but a significant difference was not found in comparison with the aspirin single administration group (ASA 300) | total protein content of thrombi, comparison with control (vehicle administration group) ([1]; aspirin 300 mg/kg orally 1 hour before thrombus induction): statistically significant difference | gastric mucosal lesion (length) (gastric mucosa; 300 mg/kg oral, single drug): Gastric mucosal damage was clearly formed | gastric mucosal damage at concomitant administration with clopidogrel compared with aspirin alone (gastric mucosa; aspirin 300 mg/kg + clopidogrel 3 mg/kg vs aspirin 300 mg/kg alone): becomes worse | gastric mucosal lesion (length) (gastric mucosa; aspirin 300 mg/kg concomitantly with clopidogrel 3 mg/kg, oral): Gastric mucosal damage was also clearly induced | inhibition at 300 mg/kg (COX-1; 300 mg/kg aspirin orally): 100% | inhibition at 300 mg/kg (COX-2): 90.4% | event onset ratio [2]: 5.32 %/year | event inhibition ratio ([3]; 75 mg or less, meta-analysis): 13% | event inhibition ratio ([3]; administration of from 75 to 150 mg, meta-analysis): 32% | event inhibition ratio ([3]; administration of from 160 to 325 mg, meta-analysis): 26% | event inhibition ratio ([3]; administration of from 500 to 1500 mg, meta-analysis): 19% | event inhibition ratio ([3]; high risk patients, low dose aspirin): about 25%

COC(=O)[C@H](c1ccccc1Cl)N1CCc2sccc2C1 [clopidogrel, methyl (+)-(S)-2-(2-chlorophenyl)-2-(4,5,6,7-tetrahydrothieno[3,2-c]pyridin-5-yl)acetate]
total protein content of thrombi, comparison with control (vehicle administration group) ([1]; clopidogrel 1 mg/kg orally 2 hours before thrombus induction): statistically significant difference | gastric mucosal lesion (length) (gastric mucosa; 100 mg/kg oral, single drug): a clear action for gastric mucosa cannot be confirmed | event onset ratio [2]: 5.83 %/year | lowering of the event onset ratio based on aspirin [2]: 8.7% | reduction of event ratio in combination use group in comparison with the aspirin alone group ([4]; non-ST increase ACS patients): 20% | hemorrhagic side effects in the combination use group [4]: significantly increased | primary prevention effect ([5]; low risk patients): usefulness of the combination group was not found | secondary thrombotic event inhibition effect ([5]; patients of ischemic diseases): significant secondary thrombotic event inhibition effect
